Laboratory results: patent US11192866B2, “Synthesis of tetracyclines and analogues thereof” (President and Fellows of Harvard College, priority 2004, dated 2021)

Test system: Gram-positive strains
Test: Whole-cell antibacterial MIC assay (NCCLS serial dilution), Gram-positive strains
Type: cell-based
Conditions: each of the Gram-positive strains examined, including strains with resistance to tetracycline, methicillin, and vancomycin
Description: The efficiencies of the synthetic sequences have allowed for the preparation of sufficient quantities of each tetracycline analog for antibacterial testing using standard serial-dilution techniques (5-20 mg amounts). Minimum inhibitory concentrations (MICs) are reported for each analog in whole-cell antimicrobial assays using five Gram-positive and five Gram-negative organisms (FIGS. 18A to 18C).
Whole-cell antibacterial activity was determined according to methods recommended by the NCCLS (National Committee for Clinical Laboratory Standards. 2002. Methods for dilution antimicrobial susceptibility tests for bacteria that grow aerobically: approved standard-fifth edition. NCCLS document M100-S12. National Committee for Clinical Laboratory Standards. Wayne, Pa.; incorporated herein by reference). Test compounds were dissolved in dimethyl sulfoxide (DMSO) and the resulting solutions were diluted in water (1:10) to produce stock solutions with a final concentration of 256 μg tetracycline analog per mL. In a 96-well microtiter plate, 50-μL aliquots of stock solutions were diluted serially into cation-adjusted Mueller-Hinton broth (MHB; Becton-Dickinson, Cockeysville, Md.). Test organisms (50 μL aliquots of solutions […]) were then added to the appropriate wells of the microtiter plate. […] The MIC was the lowest concentration of compound determined to inhibit visible growth. […]

## CN(C)[C@@H]1C(O)=C(C(N)=O)C(=O)[C@@]2(O)C(O)=C3C(=O)c4c(cc5ccccc5c4O)C[C@H]3C[C@@H]12 [pentacycline derivative 6]
  antibacterial activity compared with tetracycline: activity equal to or greater than tetracycline
